# Reference: patent US8138189B2, “Substituted benzene compounds as modulators of the glucocorticoid receptor” (Hoffman-La Roche Inc., priority 2009, dated 2012)
# Biological target: T1, full length human recombinant glucocorticoid receptor (Homo sapiens, UniProt P04150)
# T1 construct: partially purified full length human recombinant glucocorticoid receptor; purchased Panvera/Invitrogen PV4302
# T1 sequence (P04150 1-777): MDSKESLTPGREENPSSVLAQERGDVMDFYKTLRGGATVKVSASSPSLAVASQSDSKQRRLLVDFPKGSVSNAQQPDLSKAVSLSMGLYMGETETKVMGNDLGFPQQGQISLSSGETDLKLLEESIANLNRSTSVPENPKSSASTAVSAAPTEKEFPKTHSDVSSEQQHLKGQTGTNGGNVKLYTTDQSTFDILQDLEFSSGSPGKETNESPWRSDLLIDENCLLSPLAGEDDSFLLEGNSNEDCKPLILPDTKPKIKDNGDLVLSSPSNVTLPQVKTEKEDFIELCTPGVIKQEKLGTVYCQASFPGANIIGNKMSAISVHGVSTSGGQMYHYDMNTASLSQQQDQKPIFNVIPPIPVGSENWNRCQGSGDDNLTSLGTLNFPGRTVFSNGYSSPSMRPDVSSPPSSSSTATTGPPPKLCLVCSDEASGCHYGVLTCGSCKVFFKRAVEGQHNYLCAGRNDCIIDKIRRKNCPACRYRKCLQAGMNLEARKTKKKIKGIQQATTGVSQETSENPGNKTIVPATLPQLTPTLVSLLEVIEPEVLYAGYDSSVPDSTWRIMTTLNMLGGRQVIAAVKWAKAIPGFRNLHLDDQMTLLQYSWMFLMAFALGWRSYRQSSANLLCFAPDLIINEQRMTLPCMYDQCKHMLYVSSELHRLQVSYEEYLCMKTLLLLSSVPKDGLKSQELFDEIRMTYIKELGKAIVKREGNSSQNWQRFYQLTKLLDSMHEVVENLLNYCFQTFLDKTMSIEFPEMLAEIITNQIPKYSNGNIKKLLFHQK
# Assay: Glucocorticoid Receptor Binding Assay (fluorescence polarization competitor assay, Fluormone GS Far Red tracer)
# Summary of the method: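 Partially purified full-length recombinant human GR with a stabilizing coactivator peptide was incubated with Fluormone GS Far Red tracer and serially diluted compound for 3 h at 22 °C in the dark, pH 7.4. Fluorescence polarization was read at 610-660 nm. IC50 came from sigmoidal fitting, and Ki from Cheng-Prusoff.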
row,Ki [nM],SMILES
1,2.9,"C[C@H](c1ccc(OCc2ccc(C(=O)O)cc2)cc1Cl)[C@@](O)(c1ccnc(Cl)c1)C(F)(F)F (stereo in doubt) [Example 20, 4-{3-Chloro-4-[2-(2-chloro-pyridin-4-yl)-3,3,3-trifluoro-2-hydroxy-1-methyl-propyl]-phenoxymethyl}-benzoic acid]"
2,10.7,"COc1cc(C(=O)O)ccc1COc1ccc([C@@H](C)[C@@](O)(c2ccnc(Cl)c2)C(F)(F)F)c(Cl)c1 (stereo in doubt) [Example 22, 4-{3-Chloro-4-[2-(2-chloro-pyridin-4-yl)-3,3,3-trifluoro-2-hydroxy-1-methyl-propyl]-phenoxymethyl}-3-methoxy-benzoic acid]"
3,4.7,"C[C@H](c1ccc(OCc2ccc(CC(=O)O)cc2)cc1Cl)[C@@](O)(c1ccnc(Cl)c1)C(F)(F)F (stereo in doubt) [Example 24, (4-{3-Chloro-4-[2-(2-chloro-pyridin-4-yl)-3,3,3-trifluoro-2-hydroxy-1-methyl-propyl]-phenoxymethyl}-phenyl)-acetic acid]"
4,11.5,"C[C@H](c1ccc(OS(=O)(=O)c2ccc(C(=O)O)cc2)cc1Cl)[C@@](O)(c1ccnc(Cl)c1)C(F)(F)F (stereo in doubt) [Example 25, 4-{3-Chloro-4-[2-(2-chloro-pyridin-4-yl)-3,3,3-trifluoro-2-hydroxy-1-methyl-propyl]-phenoxysulfonyl}-benzoic acid]"
5,200,"C[C@H](c1ccc(C(=O)Nc2ccc(C(=O)O)cc2)cc1Cl)[C@@](O)(c1ccnc(Cl)c1)C(F)(F)F (stereo in doubt) [Example 26, 4-{3-Chloro-4-[2-(2-chloro-pyridin-4-yl)-3,3,3-trifluoro-2-hydroxy-1-methyl-propyl]-benzoylamino}-benzoic acid]"
6,94.7,"COC(=O)c1ccnc(NC(=O)c2ccc([C@@H](C)[C@@](O)(c3ccnc(Cl)c3)C(F)(F)F)c(Cl)c2)c1 (stereo in doubt) [Example 27, 2-{3-Chloro-4-[-2-(2-chloro-pyridin-4-yl)-3,3,3-trifluoro-2-hydroxy-1-methyl-propyl]-benzoylamino}-isonicotinic acid methyl ester]"
7,171,"C[C@H](c1ccc(C(=O)Nc2cc(C(=O)O)ccn2)cc1Cl)[C@@](O)(c1ccnc(Cl)c1)C(F)(F)F (stereo in doubt) [Example 29, 2-{3-Chloro-4-[2-(2-chloro-pyridin-4-yl)-3,3,3-trifluoro-2-hydroxy-1-methyl-propyl]-benzoylamino}-isonicotinic acid]"
8,245,"CCOC(=O)C1CCN(C(=O)c2ccc([C@@H](C)[C@@](O)(c3ccnc(Cl)c3)C(F)(F)F)c(Cl)c2)CC1 (stereo in doubt) [Example 32, 1-{3-Chloro-4-[2-(2-chloro-pyridin-4-yl)-3,3,3-trifluoro-2-hydroxy-1-methyl-propyl]-benzoyl}-piperidine-4-carboxylic acid ethyl ester]"
9,337,"C[C@H](c1ccc(C(=O)Nc2ccn(CC(=O)O)n2)cc1Cl)[C@@](O)(c1ccnc(Cl)c1)C(F)(F)F (stereo in doubt) [Example 35, (3-{3-Chloro-4-[2-(2-chloro-pyridin-4-yl)-3,3,3-trifluoro-2-hydroxy-1-methyl-propyl]-benzoylamino}-pyrazol-1-yl)-acetic acid]"
10,140,"C[C@H](c1ccc(C(=O)NCc2ccc(C(=O)O)cc2)cc1Cl)[C@@](O)(c1ccnc(Cl)c1)C(F)(F)F (stereo in doubt) [Example 37, 4-({3-Chloro-4-[2-(2-chloro-pyridin-4-yl)-3,3,3-trifluoro-2-hydroxy-1-methyl-propyl]-benzoylamino}-methyl)-benzoic acid]"
11,274,"C[C@H](c1ccc(C(=O)Nc2ccc(CC(=O)O)cc2)cc1Cl)[C@@](O)(c1ccnc(Cl)c1)C(F)(F)F (stereo in doubt) [Example 39, (4-{3-Chloro-4-[2-(2-chloro-pyridin-4-yl)-3,3,3-trifluoro-2-hydroxy-1-methyl-propyl]-benzoylamino}-phenyl)-acetic acid]"
12,289,"C[C@H](c1ccc(C(=O)Nc2cccc(C(=O)O)c2)cc1Cl)[C@@](O)(c1ccnc(Cl)c1)C(F)(F)F (stereo in doubt) [Example 41, 3-{3-Chloro-4-[2-(2-chloro-pyridin-4-yl)-3,3,3-trifluoro-2-hydroxy-1-methyl-propyl]-benzoylamino}-benzoic acid]"
13,280,"CCOC(=O)Cc1ccc(CNC(=O)c2ccc([C@@H](C)[C@@](O)(c3ccnc(Cl)c3)C(F)(F)F)c(Cl)c2)cc1 (stereo in doubt) [Example 42, [4-({3-Chloro-4-[2-(2-chloro-pyridin-4-yl)-3,3,3-trifluoro-2-hydroxy-1-methyl-propyl]-benzoylamino}-methyl)-phenyl]-acetic acid ethyl ester]"
14,156,"C[C@H](c1ccc(C(=O)NCc2ccc(CC(=O)O)cc2)cc1Cl)[C@@](O)(c1ccnc(Cl)c1)C(F)(F)F (stereo in doubt) [Example 43, [4-({3-Chloro-4-[2-(2-chloro-pyridin-4-yl)-3,3,3-trifluoro-2-hydroxy-1-methyl-propyl]-benzoylamino}-methyl)-phenyl]-acetic acid]"
15,144,"C[C@H](c1ccc(-c2nc(C(=O)O)no2)cc1Cl)[C@@](O)(c1ccnc(Cl)c1)C(F)(F)F (stereo in doubt) [Example 48, 5-{3-Chloro-4-[2-(2-chloro-pyridin-4-yl)-3,3,3-trifluoro-2-hydroxy-1-methyl-propyl]-phenyl}-[1,2,4]oxadiazole-3-carboxylic acid]"
16,18.6,"COC(=O)c1ccc(-c2ccc([C@@H](C)[C@@](O)(c3ccnc(Cl)c3)C(F)(F)F)c(Cl)c2)cc1 (stereo in doubt) [Example 49, 3′-Chloro-4′-[2-(2-chloro-pyridin-4-yl)-3,3,3-trifluoro-2-hydroxy-1-methyl-propyl]-biphenyl-4-carboxylic acid methyl ester]"
17,150,"CCOC(=O)c1cccc(-c2ccc([C@@H](C)[C@@](O)(c3ccnc(Cl)c3)C(F)(F)F)c(Cl)c2)c1 (stereo in doubt) [Example 51, 3′-Chloro-4′-[2-(2-chloro-pyridin-4-yl)-3,3,3-trifluoro-2-hydroxy-1-methyl-propyl]-biphenyl-3-carboxylic acid ethyl ester]"
18,29.7,"C[C@H](c1ccc(-c2ccc(C(=O)O)c(F)c2)cc1Cl)[C@@](O)(c1ccnc(Cl)c1)C(F)(F)F (stereo in doubt) [Example 54, 3′-Chloro-4′-[2-(2-chloro-pyridin-4-yl)-3,3,3-trifluoro-2-hydroxy-1-methyl-propyl]-3-fluoro-biphenyl-4-carboxylic acid]"
19,29.4,"C[C@H](c1ccc(-c2ccc(CCC(=O)O)cc2)cc1Cl)[C@@](O)(c1ccnc(Cl)c1)C(F)(F)F (stereo in doubt) [Example 55, 3-{3′-Chloro-4′-[2-(2-chloro-pyridin-4-yl)-3,3,3-trifluoro-2-hydroxy-1-methyl-propyl]-biphenyl-4-yl}-propionic acid]"
20,207,"CCOC(=O)c1cccc(-c2ccc([C@@H](C)[C@@](O)(c3ccnc(-c4cccc(C(=O)OCC)c4)c3)C(F)(F)F)c(Cl)c2)c1 (stereo in doubt) [Example 56, 3′-Chloro-4′-{2-[2-(3-ethoxycarbonyl-phenyl)-pyridin-4-yl]-3,3,3-trifluoro-2-hydroxy-1-methyl-propyl}-biphenyl-3-carboxylic acid ethyl ester]"
